# Experiments:
# [1] = tested on: genotype 2 or 3 HCV; experiment: SVR in HCV infected patients given sofosbuvir plus other HCV therapeutics; assay type: in vivo, human; details: 400 mg once daily plus other HCV therapeutics; genotype 2 or 3 HCV infected patients
# Protocol: Safety and tolerability appeared similar across both dose levels. In addition, when sofosbuvir 400 mg once daily plus other HCV therapeutics were given to genotype 2 or 3 HCV infected patients, 100% SVR24 was observed.
# [2] = Photostability of tablet cores and film-coated tablets per ICH Q1B (Table 12); assay type: physicochemical
# Protocol: Tablet cores and film-coated tablets were evaluated per ICH Q1B guidelines with a total of illumination of more than 1.2 million-lux hours and a total irradiance of more than 200 W·hr/m^2.
# [3] = Stability of clinical film-coated tablets Batches A-D (Tables 14, 15A-15C); assay type: physicochemical; details: for LS (%): tablets Batch C, 1 g desiccant
# Protocol: FIGS. 10-12 depict additional dissolution profiles for the sofosbuvir/velpatasvir SSD/voxilaprevir SSD tablets having the formulation described in Table 13 and which were used in phase 1, 2, and 3 clinical studies, where the dissolution testing was conducted at pH 5.0 acetate buffer containing 2.0% w/v polysorbate 80. Four batches of the sofosbuvir/velpatasvir SSD/voxilaprevir SSD tablets were tested, with Batch A manufactured at 100 kg and Batches B, C and D manufactured at 145 kg. All other aspects of the formulation and manufacturing process were otherwise equivalent. The four batches were packed in the same commercial configuration: 28 count, 100 mL HPDE bottle with 1 g silica gel desiccant canister and a polyester fiber coil. […] Moreover, for Batch A, the amount dissolved at 30 min remained between 98 and 100% for sofosbuvir, between 90 and 92% for velpatasvir SSD, and between 89 and 93% for voxilaprevir SSD. […] For Batch D, the amount dissolved at 30 min remained at 100% for sofosbuvir, between 90 and 91% for velpatasvir SSD, and between 89 and 91% for voxilaprevir SSD. Release of velpatasvir SSD and voxilaprevir SSD from the sofosbuvir/velpatasvir SSD/voxilaprevir SSD tablets associated with all four Batches was complete after 60 minutes.
# Stability data associated with the sofosbuvir/velpatasvir SSD/voxilaprevir SSD film-coated tablets (Batch A) are presented in Table 14. […] No upward trend in the content of degradation products was observed over the time period studied. The water content for packaged tablets remained between 1.9 and 2.3% through 6 months storage at 40° C./75% RH, 30° C./75% RH, and 25° C./60% RH. As summarized in Table 14, the packaged tablets (Batch A) were physically stable with no change in XRPD patterns after 6 months storage.
# Stability data associated with the sofosbuvir/velpatasvir SSD/voxilaprevir SSD film-coated tablets (Batches B-D) are presented in Tables 15A-15C, respectively. […] No upward trend in the content of degradation products was observed over the time period studied. The water content for packaged tablets remained between 1.8 and 2.3% through 6 months storage at 40° C./75% RH, 30° C./75% RH, and 25° C./60% RH. The packaged tablets were physically stable with no change in XRPD patterns after 6 months storage.
# For Batch D, the packaged tablets had acceptable chemical stability for up to 1 month under all conditions with total impurities/degradation products of sofosbuvir remaining at 0.0%, velpatasvir SSD remaining between 0.7 and 0.8%, and voxilaprevir SSD remaining at 0.0%. No upward trend in the content of degradation products was observed over the time period studied. The water content for packaged tablets remained between 1.9 and 2.3% through 1 month storage at 40° C./75% RH, 30° C./75% RH, and 25° C./60% RH.
# [4] = Impact of desiccant and packaging configuration on tablet stability (Tables 24A-24C); assay type: physicochemical; details: for I/D (%) / LS (%): tablets;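 as to all read-outs here: stability of tablets stored with different desiccant amounts and packaging configurations, evaluating physical and chemical stability plus dissolution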
# [5] = film-coating 0% weight gain, Exposed to Light
# [6] = film-coating 2.1% weight gain, Exposed to Light
# [7] = film-coating 2.1% weight gain, Protected from Light
# [8] = film-coating 3.4% weight gain, Exposed to Light
# [9] = film-coating 3.4% weight gain, Protected from Light
# [10] = film-coating 4.1% weight gain, Exposed to Light
# [11] = film-coating 4.1% weight gain, Protected from Light
# [12] = film-coating 5.4% weight gain, Protected from Light
# [13] = Batch A, 25° C./60% RH, 3 months
# [14] = Batch A, 25° C./60% RH, 6 months
# [15] = Batch A, 30° C./75% RH, 3 months
# [16] = Batch A, 30° C./75% RH, 6 months
# [17] = Batch A, 40° C./75% RH, 1 month
# [18] = Batch A, 40° C./75% RH, 3 months
# [19] = Batch A, 40° C./75% RH, 6 months
# [20] = closed, 1 g desiccant, 25° C./60% RH, 12 weeks
# [21] = closed, 1 g desiccant, 25° C./60% RH, 24 weeks
# [22] = closed, 1 g desiccant, 40° C./75% RH, 4 weeks
# [23] = closed, 1 g desiccant, 40° C./75% RH, 12 weeks
# [24] = closed, 1 g desiccant, 40° C./75% RH, 24 weeks
# [25] = closed, 3 g desiccant, 25° C./60% RH, 12 weeks
# [26] = closed, 3 g desiccant, 25° C./60% RH, 24 weeks
# [27] = closed, 3 g desiccant, 40° C./75% RH, 4 weeks
# [28] = closed, 3 g desiccant, 40° C./75% RH, 12 weeks
# [29] = closed, 3 g desiccant, 40° C./75% RH, 24 weeks
# [30] = closed, no desiccant, 25° C./60% RH, 12 weeks
# [31] = closed, no desiccant, 25° C./60% RH, 24 weeks
# [32] = closed, no desiccant, 40° C./75% RH, 4 weeks
# [33] = closed, no desiccant, 40° C./75% RH, 12 weeks
# [34] = closed, no desiccant, 40° C./75% RH, 24 weeks
# [35] = desiccant study, Initial, time 0
compound,measurement,setting,value
"CC(C)OC(=O)C(C)N[P@](=O)(OC[C@H]1O[C@@H](n2ccc(=O)[nH]c2=O)[C@](C)(F)[C@@H]1O)Oc1ccccc1 (stereo in doubt) [sofosbuvir, (S)-isopropyl 2-(((S)-(((2R,3R,4R,5R)-5-(2,4-dioxo-3,4-dihydropyrimidin-1(2H)-yl)-4-fluoro-3-hydroxy-4-methyltetrahydrofuran-2-yl)methoxy)(phenoxy)phosphoryl)amino)propanoate]",SVR24,[1],100%
same,LS,[2]; [5],101.5%
same,Total Imp./Deg. Products,[2]; [5],0.0%
same,Total Imp./Deg. Products,"[2]; film-coating 0% weight gain, Protected from Light",0.0%
same,LS,[2]; [6],101.7%
same,Total Imp./Deg. Products,[2]; [6],0.0%
same,LS,[2]; [7],101.2%
same,Total Imp./Deg. Products,[2]; [7],0.0%
same,LS,[2]; [8],100.6%
same,Total Imp./Deg. Products,[2]; [8],0.0%
same,LS,[2]; [9],101.8%
same,Total Imp./Deg. Products,[2]; [9],0.0%
same,LS,[2]; [10],102.0%
same,Total Imp./Deg. Products,[2]; [10],0.0%
same,LS,[2]; [11],101.2%
same,Total Imp./Deg. Products,[2]; [11],0.0%
same,Total Imp./Deg. Products,"[2]; film-coating 5.4% weight gain, Exposed to Light",0.0%
same,LS,[2]; [12],101.0%
same,Total Imp./Deg. Products,[2]; [12],0.0%
same,level of degradation products,[2]; tablets film-coated to weight gains 2.1 to 5.4%,0.0%
same,loss after exposure to light,[2]; uncoated tablet cores,no change
same,LS,[3]; [13],102.7%
same,Total Imp./Deg.,[3]; [13],0.0%
same,LS,[3]; [14],99.0%
same,Total Imp./Deg.,[3]; [14],0.0%
same,LS,[3]; [15],100.3%
same,Total Imp./Deg.,[3]; [15],0.0%
same,LS,[3]; [16],98.1%
same,Total Imp./Deg.,[3]; [16],0.0%
same,LS,[3]; [17],99.7%
same,Total Imp./Deg.,[3]; [17],0.0%
same,LS,[3]; [18],101.7%
same,Total Imp./Deg.,[3]; [18],0.0%
same,LS,[3]; [19],98.7%
same,Total Imp./Deg.,[3]; [19],0.0%
same,LS,"[3]; Batch A, Initial",99.0%
same,Total Imp./Deg.,"[3]; Batch A, Initial",0.0%
same,total impurities/degradation products,"[3]; Batch A, up to 6 months under all conditions",0.0%
same,LS,"[3]; Batch B, 25° C./60% RH, 3 months",100.7%
same,LS,"[3]; Batch B, 25° C./60% RH, 6 months",100.1%
same,LS,"[3]; Batch B, 30° C./75% RH, 3 months",98.4%
same,LS,"[3]; Batch B, 30° C./75% RH, 6 months",98.8%
same,LS,"[3]; Batch B, 40° C./75% RH, 1 month",101.7%
same,LS,"[3]; Batch B, 40° C./75% RH, 3 months",99.8%
same,LS,"[3]; Batch B, 40° C./75% RH, 6 months",99.0%
same,LS,"[3]; Batch B, Initial",100.0%
same,Total Imp./Deg.,"[3]; Batch B, Initial",0.0%
same,LS,"[3]; Batch D, 40° C./75% RH, 1 month",99.7%
same,LS,"[3]; Batch D, Initial",99.8%
same,total impurities/degradation products,"[3]; Batch D, up to 1 month under all conditions",0.0%
same,total impurities/degradation products,"[3]; Batches B and C, up to 6 months under all conditions",0.0%
same,LS (%),"[3]; 25° C./60% RH, 3 months",98.9%
same,LS (%),"[3]; 25° C./60% RH, 6 months",98.8%
same,LS (%),"[3]; 30° C./75% RH, 3 months",100.1%
same,LS (%),"[3]; 30° C./75% RH, 6 months",99.1%
same,LS (%),"[3]; 40° C./75% RH, 1 month",101.1%
same,LS (%),"[3]; 40° C./75% RH, 3 months",99.4%
same,LS (%),"[3]; 40° C./75% RH, 6 months",98.9%
same,LS (%),"[3]; Initial, time 0",99.1%
same,total impurities/degradation products,"[4]; desiccant study (0, 1, 3 g), all conditions, 6 months",0.0%
same,I/D (%),[4]; [20],0.0%
same,LS (%),[4]; [20],99.3%
same,I/D (%),[4]; [21],0.0%
same,LS (%),[4]; [21],100.4%
same,I/D (%),[4]; [22],0.0%
same,LS (%),[4]; [22],100.0%
same,I/D (%),[4]; [23],0.0%
same,LS (%),[4]; [23],99.4%
same,I/D (%),[4]; [24],0.0%
same,LS (%),[4]; [24],101.7%
same,I/D (%),[4]; [25],0.0%
same,LS (%),[4]; [25],100.3%
same,I/D (%),[4]; [26],0.0%
same,LS (%),[4]; [26],101.6%
same,I/D (%),[4]; [27],0.0%
same,LS (%),[4]; [27],100.0%
same,I/D (%),[4]; [28],0.0%
same,LS (%),[4]; [28],99.9%
same,I/D (%),[4]; [29],0.0%
same,LS (%),[4]; [29],102.3%
same,I/D (%),[4]; [30],0.0%
same,LS (%),[4]; [30],99.3%
same,I/D (%),[4]; [31],0.0%
same,LS (%),[4]; [31],100.2%
same,I/D (%),[4]; [32],0.0%
same,LS (%),[4]; [32],101.4%
same,I/D (%),[4]; [33],0.0%
same,LS (%),[4]; [33],100.3%
same,I/D (%),[4]; [34],0.0%
same,LS (%),[4]; [34],100.4%
same,I/D (%),[4]; [35],0.0%
same,LS (%),[4]; [35],102.1%
